In the NIST ThermoML archive (doi:10.1016/j.jct.2010.12.028):

Assays:
[1] = xn = mol fraction of the nth substance listed; details: 101 kPa, Liquid; for speed of sound: Sing-around technique in a fixed-path interferometer; for mass density: Vibrating tube method
[2] = excess molar enthalpy (molar enthalpy of mixing); xn = mol fraction of the nth substance listed; details: 308.15 K, 101 kPa, Liquid, two-drop calorimeter

Cc1ccccc1N [2-methylaniline] + c1ccncc1
[1]
Details	mass density, 298.15 K [kg/m3]	mass density, 303.15 K [kg/m3]	mass density, 308.15 K [kg/m3]	speed of sound, 298.15 K [m/s]	speed of sound, 303.15 K [m/s]	speed of sound, 308.15 K [m/s]
x1 = 0.0652	980.854	975.904	970.897	1431.7	1411.5	1391.8
x1 = 0.1138	982.607	977.714	972.767	1442.1	1421.8	1402.4
x1 = 0.1277	–	978.889	–	–	–	–
x1 = 0.1477	983.731	–	973.991	1449.2	1429	1409.8
x1 = 0.1853	984.895	980.111	975.253	1457	1436.9	1417.8
x1 = 0.2374	986.375	981.65	976.858	1467.7	1447.7	1428.6
x1 = 0.2686	987.172	982.485	977.748	1474	1454	1435
x1 = 0.3005	987.937	983.289	978.587	1480.3	1460.4	1441.4
x1 = 0.3526	989.058	984.461	979.835	1490.5	1470.6	1451.7
x1 = 0.4104	990.119	985.592	981.051	1501.4	1481.7	1462.7
x1 = 0.4837	991.237	986.789	982.322	1514.8	1495.3	1476.3
x1 = 0.5238	991.751	987.335	982.917	1522	1502.6	1483.6
x1 = 0.5641	992.187	987.803	983.434	1529.1	1509.6	1490.6
x1 = 0.6231	992.73	988.386	984.067	1539.3	1519.7	1500.7
x1 = 0.6974	993.253	988.955	984.698	1551.7	1531.8	1513.1
x1 = 0.7678	993.622	989.362	985.142	1563.4	1542.9	1524.3
x1 = 0.8236	993.838	989.613	985.416	1572.5	1551.6	1532.9
x1 = 0.8622	993.969	989.756	985.573	1578.9	1557.4	1538.6
x1 = 0.9621	994.245	990.097	985.933	1595.9	1572.2	1553.2

[2]
Details	excess molar enthalpy [kcal/mol]
x1 = 0.0397	-0.052
x1 = 0.0728	-0.0894
x1 = 0.1263	-0.137
x1 = 0.1742	-0.171
x1 = 0.2163	-0.192
x1 = 0.2681	-0.213
x1 = 0.3192	-0.23
x1 = 0.3707	-0.24
x1 = 0.4212	-0.245
x1 = 0.4826	-0.247
x1 = 0.5261	-0.245
x1 = 0.5815	-0.241
x1 = 0.6327	-0.23
x1 = 0.7026	-0.213
x1 = 0.7735	-0.187
x1 = 0.8177	-0.165
x1 = 0.8802	-0.123
x1 = 0.9723	-0.0346

Cc1ccccn1 [2-methylpyridine] + Cc1ccccc1N
[1]
Details	mass density, 298.15 K [kg/m3]	mass density, 303.15 K [kg/m3]	mass density, 308.15 K [kg/m3]	speed of sound, 298.15 K [m/s]	speed of sound, 303.15 K [m/s]	speed of sound, 308.15 K [m/s]
x2 = 0.0588	944.871	940.204	935.521	1395.6	1376.2	1355.7
x2 = 0.1226	950.051	945.414	940.771	1412	1392.5	1372.3
x2 = 0.1427	951.609	946.996	942.357	1417.3	1397.5	1377.4
x2 = 0.1759	954.117	949.518	944.908	1425.8	1405.8	1385.8
x2 = 0.2258	957.721	953.161	948.573	1438.3	1418.1	1398.3
x2 = 0.2557	959.793	955.24	950.677	1445.7	1425.4	1405.6
x2 = 0.3113	963.447	958.931	954.409	1459.5	1438.7	1418.7
x2 = 0.3629	966.623	962.158	957.666	1471.8	1450.8	1430.8
x2 = 0.4213	969.995	965.568	961.112	1485.4	1464	1443.9
x2 = 0.4743	972.843	968.45	964.025	1497.5	1475.7	1455.4
x2 = 0.5146	974.899	970.527	966.122	1506.3	1484.4	1464
x2 = 0.5732	977.707	973.382	968.998	1519.1	1496.8	1476.2
x2 = 0.6182	979.733	975.431	971.079	1528.4	1505.9	1485.5
x2 = 0.6862	982.621	978.364	974.033	1542.2	1519.4	1498.8
x2 = 0.7571	985.441	981.219	976.909	1556.3	1532.9	1508
x2 = 0.8344	988.355	984.158	979.889	1571.1	1547.4	1522.5
x2 = 0.8737	989.787	985.611	981.361	1578.5	1554.6	1538.1
x2 = 0.9527	992.636	988.492	984.295	1593.5	1569.1	1555.1

[2]
Details	excess molar enthalpy [kcal/mol]
x2 = 0.0496	-0.0681
x2 = 0.0772	-0.103
x2 = 0.1356	-0.173
x2 = 0.1802	-0.22
x2 = 0.2234	-0.26
x2 = 0.2736	-0.298
x2 = 0.3294	-0.327
x2 = 0.3813	-0.347
x2 = 0.4326	-0.361
x2 = 0.4882	-0.358
x2 = 0.5321	-0.351
x2 = 0.5735	-0.342
x2 = 0.6423	-0.307
x2 = 0.7152	-0.259
x2 = 0.7821	-0.207
x2 = 0.8293	-0.163
x2 = 0.8916	-0.104
x2 = 0.9676	-0.0298

Cc1cccnc1 [3-methylpyridine] + Cc1ccccc1N
[1]
Details	mass density, 298.15 K [kg/m3]	mass density, 303.15 K [kg/m3]	mass density, 308.15 K [kg/m3]	speed of sound, 298.15 K [m/s]	speed of sound, 303.15 K [m/s]	speed of sound, 308.15 K [m/s]
x2 = 0.0447	955.059	950.551	945.98	1433	1413	1393.3
x2 = 0.1132	959.404	954.953	950.452	1446.4	1426.4	1407
x2 = 0.1771	963.134	958.721	954.262	1458.6	1438.8	1419.5
x2 = 0.2069	964.775	960.381	955.934	1464.1	1444.5	1425.1
x2 = 0.2467	966.875	962.502	958.079	1471.5	1451.9	1432.5
x2 = 0.2888	968.994	964.629	960.232	1479.1	1459.8	1440.4
x2 = 0.3112	970.081	965.722	961.335	1483.1	1463.9	1444.3
x2 = 0.3624	972.469	968.119	963.751	1492.2	1473.1	1453.4
x2 = 0.4182	974.916	970.586	966.234	1502	1483	1463.2
x2 = 0.4632	976.799	972.478	968.134	1509.7	1490.6	1470.9
x2 = 0.5336	979.577	975.273	970.94	1521.7	1502.6	1482.7
x2 = 0.5778	981.226	976.931	972.616	1529.2	1509.7	1489.9
x2 = 0.6334	983.223	978.936	974.642	1538.6	1518.8	1499
x2 = 0.6967	985.375	981.112	976.836	1549.2	1528.8	1509.3
x2 = 0.7372	986.701	982.449	978.187	1556	1535.1	1515.8
x2 = 0.8156	989.151	984.927	980.689	1569.5	1547.5	1528.4
x2 = 0.8842	991.171	986.982	982.772	1581.5	1558.4	1539.5
x2 = 0.9711	993.588	989.441	985.272	1597.2	1572.8	1553.6

[2]
Details	excess molar enthalpy [kcal/mol]
x2 = 0.0503	-0.0794
x2 = 0.0843	-0.125
x2 = 0.1425	-0.194
x2 = 0.1901	-0.236
x2 = 0.2323	-0.268
x2 = 0.2837	-0.301
x2 = 0.3334	-0.321
x2 = 0.3783	-0.334
x2 = 0.4436	-0.337
x2 = 0.4926	-0.337
x2 = 0.5487	-0.323
x2 = 0.5902	-0.312
x2 = 0.6643	-0.281
x2 = 0.7182	-0.248
x2 = 0.7789	-0.209
x2 = 0.8348	-0.163
x2 = 0.8937	-0.11
